Experimental data from patent US20150030668A1 (priority 2012, published 2015).
Read-outs that look alike come from different tables or passages of the source.

Tests used:
[1] = test system: aflatoxin B1-induced hepatic nodules or tumors; details: mouse, in vivo; cited from earlier work
[2] = rat liver, CO-60, control (water) = 0%
Source text: The tissue from the control animals (water) served as the 100% of the toxin remaining in the tissue. The animals receiving: • a.

[3] = test system: Mycobacterium tuberculosis; details: NAC at 10 millimolar

SMILES: N[C@@H](CCC(=O)N[C@@H](CS)C(=O)NCC(=O)O)C(=O)O [Plain glutathione, glutathione (reduced)]
- decreasing the incidence or size of hepatic nodules or tumors [1]: no benefit
- removal of the toxin [2]: 10%
- removal of the toxin ([2]; listed as Intravenous glutathione): 70%

SMILES: CC(=O)N[C@@H](CS)C(=O)O [NAC, N-acetyl cysteine]
- CFU/ml reduced to [3]: 8,000 CFU/ml
